In paper PMC8381290 (Journal of medicinal chemistry, 2021):

How the values were obtained:
[1] = type: in vivo, mouse; conditions: for accumulation in the eye compared with emixustat / distribution within ocular tissue: single 380 nmol i.p. dose
[2] = molecular target: T1, RPE65 (Bos taurus, UniProt Q28175); conditions: RPE65 inhibition; cited from earlier work
[3] = 3 h after single 380 nmol i.p. dose
[4] = molecular target: T1, RPE65; assay: RPE65 retinoid isomerase activity assay; conditions: ratio of IC50 values

T1 sequence (Q28175 whole entry): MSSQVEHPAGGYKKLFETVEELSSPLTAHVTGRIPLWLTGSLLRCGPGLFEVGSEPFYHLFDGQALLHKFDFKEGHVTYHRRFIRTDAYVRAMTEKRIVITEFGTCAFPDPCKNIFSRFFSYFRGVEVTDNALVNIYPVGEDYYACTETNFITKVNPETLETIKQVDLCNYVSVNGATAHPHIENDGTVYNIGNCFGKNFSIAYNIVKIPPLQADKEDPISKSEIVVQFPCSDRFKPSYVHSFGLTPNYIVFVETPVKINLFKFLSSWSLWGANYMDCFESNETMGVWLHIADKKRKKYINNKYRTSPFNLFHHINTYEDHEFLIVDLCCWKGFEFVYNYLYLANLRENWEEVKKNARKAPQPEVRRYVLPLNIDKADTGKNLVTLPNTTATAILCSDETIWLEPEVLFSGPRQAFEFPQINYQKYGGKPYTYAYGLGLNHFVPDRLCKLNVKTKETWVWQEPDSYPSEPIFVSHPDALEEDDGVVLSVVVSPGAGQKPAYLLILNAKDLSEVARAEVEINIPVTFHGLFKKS

Structure (SMILES)	accumulation in the eye compared with emixustat [1]	distribution within ocular tissue [1]	initial plasma (serum) level [3]	further results
[2H]C([2H])(N)CC(O)c1cccc(OCC2CCC(F)(F)CC2)c1 (stereo not shown) [Compound 59, 3-Amino-1-(3-((4,4-difluorocyclohexyl)methoxy)phenyl)propan-3,3-d2-1-ol]	accumulate more	–	–	–
CCCC(CCC)COc1cccc([C@H](O)CCN)c1 [(R)-MB-004]	–	–	–	IC50 [2]: 106 ± 16 nM
NCCC(O)c1ccc(F)c(OCC2CCCCC2)c1 (stereo not shown) [Compound 49, 3-Amino-1-(3-(cyclohexylmethoxy)-4-fluorophenyl)propan-1-ol]	–	poorest distribution within ocular tissue	highest initial plasma levels	–
NCCC(O)c1cccc(OCC2CCC(F)(F)CC2)c1 (stereo not shown) [Compound 57, 3-Amino-1-(3-((4,4-difluorocyclohexyl)methoxy)phenyl) propan-1-ol]	accumulate more	–	–	eye amount relative to compounds 24 and 49 ([1]; day 7 after single i.p. dose): 10 times; eye amount relative to emixustat ([1]; day 7 after single i.p. dose): 5 times
CCCC(CCC)COc1cc([C@H](O)CCN)ccc1F [Compound 24, (R)-3-Amino-1-(4-fluoro-3-((2-propylpentyl)oxy)phenyl)propan-1-ol]	–	poorest distribution within ocular tissue	highest initial plasma levels	inhibitory potency relative to racemic emixustat [4]: 3 times
